# Test results from patent US11479802B2, “Assays for screening activity of modulators of members of the hydroxy steroid (17-beta) dehydrogenase (HSD17B) family” (Regeneron Pharmaceuticals, Inc., priority 2017, dated 2022).
# Where a name gives a salt, the structure may show the parent alone.
# Target: T1, human HSD17B13 (Homo sapiens, UniProt Q7Z5P4)
# T1 sequence (Q7Z5P4 20-300): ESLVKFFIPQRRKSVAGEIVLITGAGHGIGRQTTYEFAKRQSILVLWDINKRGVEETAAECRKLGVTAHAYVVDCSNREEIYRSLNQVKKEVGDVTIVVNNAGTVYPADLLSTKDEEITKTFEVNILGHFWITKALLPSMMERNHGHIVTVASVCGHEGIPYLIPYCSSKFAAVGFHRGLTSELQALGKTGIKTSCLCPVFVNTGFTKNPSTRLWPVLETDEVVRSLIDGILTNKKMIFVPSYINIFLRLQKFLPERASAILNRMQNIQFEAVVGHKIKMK
# Experiment: Substrate screening of steroid and bioactive lipid libraries against purified recombinant HSD17B13 (NADH-linked luciferase assay)
# Format: biochemical
# Conditions: for HSD17B13 Enzymatic Activity Relative Light Units: 500 μM NAD+, 100 ng enzyme, 3 hours at 23° C.; for HSD17B13 Enzymatic Activity Percent Estradiol Control: normalized to 50 μM estradiol after subtraction of 5% DMSO
# Procedure, shortened: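 Substrates (bioactive lipids 5 μM, steroids 50 μM; 5% DMSO) tested with 500 μM NAD+ and 100 ng recombinant human HSD17B13 in 0.2 M Tris-HCl pH 7.5, 3 h, 23° C. Luminescent NADH detection followed 1 h later; RLU normalized to estradiol (50 μM, 100%) and DMSO (0%) controls.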
# [1] = Bioactive Lipid Library, 5 μM bioactive lipid (Estradiol Control 50 μM)
# [2] = Bioactive Lipid Library, 5 μM bioactive lipid
smiles,measurement,setting,value
CC(=O)OCC(=O)[C@@]1(O)CC[C@H]2[C@@H]3CCC4=CC(=O)CC[C@]4(C)[C@H]3C(=O)C[C@@]21C [Cortisone 21-acetate],HSD17B13 Enzymatic Activity Relative Light Units,"Steroid Library, 50 μM steroid",200240 RLU
same,HSD17B13 Enzymatic Activity Percent Estradiol Control,"Steroid Library, 50 μM steroid",0.69%
C[C@]12CCC(=O)C=C1CC[C@@H]1[C@@H]2C(=O)C[C@@]2(C)[C@H]1CC[C@]2(O)C(=O)CO [Cortisone],HSD17B13 Enzymatic Activity Relative Light Units,"Steroid Library, 50 μM steroid",204080 RLU
same,HSD17B13 Enzymatic Activity Percent Estradiol Control,"Steroid Library, 50 μM steroid",0.76%
"O=P([O-])(O)OC1[C@@H](O)[C@H](OP(=O)([O-])O)C(OP(=O)([O-])O)[C@H](OP(=O)([O-])O)[C@H]1O.[Na+].[Na+].[Na+].[Na+] (stereo partly drawn) [D-myo-Inositol-1,2,3,5-tetraphosphate (sodium salt)]",HSD17B13 Enzymatic Activity Relative Light Units,[1],430640 RLU
same,HSD17B13 Enzymatic Activity Percent Estradiol Control,[2],7.98%
"O=P(O)(O)O[C@@H]1[C@H](OP(=O)(O)O)[C@H](OP(=O)(O)O)[C@@H](O)[C@H](O)[C@H]1OP(=O)(O)O [D-myo-Inositol-1,2,3,6-tetraphosphate (sodium salt)]",HSD17B13 Enzymatic Activity Relative Light Units,[1],424280 RLU
same,HSD17B13 Enzymatic Activity Percent Estradiol Control,[2],7.49%
"O=P(O)(O)OC1[C@@H](OP(=O)(O)O)[C@H](OP(=O)(O)O)C(O)[C@H](OP(=O)(O)O)[C@H]1OP(=O)(O)O (stereo partly drawn) [D-myo-Inositol-1,2,4,5,6-pentaphosphate (sodium salt)]",HSD17B13 Enzymatic Activity Relative Light Units,[1],398080 RLU
same,HSD17B13 Enzymatic Activity Percent Estradiol Control,[2],5.52%
"O=P(O)(O)O[C@@H]1C(O)[C@@H](OP(=O)(O)O)[C@@H](OP(=O)(O)O)C(O)[C@H]1OP(=O)(O)O (stereo partly drawn) [D-myo-Inositol-1,2,4,5-tetraphosphate (sodium salt)]",HSD17B13 Enzymatic Activity Relative Light Units,[1],403880 RLU
same,HSD17B13 Enzymatic Activity Percent Estradiol Control,[2],5.95%
"O=P(O)(O)OC1[C@H](O)[C@H](OP(=O)(O)O)C(OP(=O)(O)O)[C@H](OP(=O)(O)O)[C@H]1O (stereo partly drawn) [D-myo-Inositol-1,3,4,5-tetraphosphate (sodium salt)]",HSD17B13 Enzymatic Activity Relative Light Units,[1],358920 RLU
same,HSD17B13 Enzymatic Activity Percent Estradiol Control,[2],2.56%
"O=P(O)(O)O[C@@H]1C(O)[C@H](OP(=O)(O)O)[C@@H](O)C(O)[C@H]1O (stereo partly drawn) [D-myo-Inositol-1,3-diphosphate (sodium salt)]",HSD17B13 Enzymatic Activity Relative Light Units,[1],487280 RLU
same,HSD17B13 Enzymatic Activity Percent Estradiol Control,[2],12.25%
"O=P(O)(O)O[C@@H]1[C@H](O)[C@H](O)[C@@H](OP(=O)(O)O)[C@H](OP(=O)(O)O)[C@H]1O [D-myo-Inositol-1,4,5-triphosphate (potassium salt)]",HSD17B13 Enzymatic Activity Relative Light Units,[1],358400 RLU
same,HSD17B13 Enzymatic Activity Percent Estradiol Control,[2],2.52%
"O=P(O)(O)OC1[C@@H](O)[C@@H](O)C(OP(=O)(O)O)[C@H](O)[C@H]1O (stereo partly drawn) [D-myo-Inositol-1,4-diphosphate (sodium salt)]",HSD17B13 Enzymatic Activity Relative Light Units,[1],439280 RLU
same,HSD17B13 Enzymatic Activity Percent Estradiol Control,[2],8.63%
"O=P([O-])(O)O[C@@H]1C(O)[C@H](OP(=O)([O-])O)[C@H](O)C(O)[C@H]1O.[Na+].[Na+] (stereo partly drawn) [D-myo-Inositol-1,5-diphosphate (sodium salt)]",HSD17B13 Enzymatic Activity Relative Light Units,[1],443840 RLU
same,HSD17B13 Enzymatic Activity Percent Estradiol Control,[2],8.97%
"O=P(O)(O)O[C@@H]1[C@@H](OP(=O)(O)O)[C@@H](OP(=O)(O)O)[C@@H](O)[C@H](O)[C@H]1OP(=O)(O)O [D-myo-Inositol-2,3,4,5-tetraphosphate (ammonium salt)]",HSD17B13 Enzymatic Activity Relative Light Units,[1],372320 RLU
same,HSD17B13 Enzymatic Activity Percent Estradiol Control,[2],3.57%
"O=P(O)(O)O[C@@H]1C(O)[C@@H](OP(=O)(O)O)[C@@H](O)C(O)[C@H]1O (stereo partly drawn) [D-myo-Inositol-2,4-diphosphate (sodium salt)]",HSD17B13 Enzymatic Activity Relative Light Units,[1],306720 RLU
same,HSD17B13 Enzymatic Activity Percent Estradiol Control,[2],−1.38%
"O=P(O)(O)OC1[C@@H](OP(=O)(O)O)[C@H](O)C(O)[C@@H](O)[C@H]1OP(=O)(O)O (stereo partly drawn) [D-myo-Inositol-3,4,5-triphosphate (sodium salt)]",HSD17B13 Enzymatic Activity Relative Light Units,[1],400520 RLU
same,HSD17B13 Enzymatic Activity Percent Estradiol Control,[2],5.70%
"O=P([O-])(O)O[C@@H]1[C@@H](O)[C@H](O)[C@H](O)[C@H](O)[C@H]1OP(=O)([O-])O.[Na+].[Na+] [D-myo-Inositol-4,5-diphosphate (sodium salt)]",HSD17B13 Enzymatic Activity Relative Light Units,[1],281680 RLU
same,HSD17B13 Enzymatic Activity Percent Estradiol Control,[2],−3.27%
O=P(O)(O)OC1[C@@H](O)[C@@H](O)C(O)[C@H](O)[C@H]1O (stereo partly drawn) [D-myo-Inositol-4-phosphate (ammonium salt)],HSD17B13 Enzymatic Activity Relative Light Units,[1],408880 RLU
same,HSD17B13 Enzymatic Activity Percent Estradiol Control,[2],6.33%
C[C@]12CC[C@H](O)CC1=CC[C@@H]1[C@@H]2CC[C@]2(C)C(=O)CC[C@@H]12 [Dehydroepiandrosterone],HSD17B13 Enzymatic Activity Relative Light Units,"Steroid Library, 50 μM steroid",196240 RLU
same,HSD17B13 Enzymatic Activity Percent Estradiol Control,"Steroid Library, 50 μM steroid",0.62%
CCC(=O)O[C@H]1CC[C@H]2[C@@H]3CC[C@H]4CC(=O)[C@H](C)C[C@]4(C)[C@H]3CC[C@]12C [Dromostanolone proprionate],HSD17B13 Enzymatic Activity Relative Light Units,"Steroid Library, 50 μM steroid",212040 RLU
same,HSD17B13 Enzymatic Activity Percent Estradiol Control,"Steroid Library, 50 μM steroid",0.90%
C[C@]12CC[C@H](O)C[C@@H]1CC[C@@H]1[C@@H]2CC[C@]2(C)C(=O)CC[C@@H]12 [Epiandrosterone],HSD17B13 Enzymatic Activity Relative Light Units,"Steroid Library, 50 μM steroid",185800 RLU
same,HSD17B13 Enzymatic Activity Percent Estradiol Control,"Steroid Library, 50 μM steroid",0.44%
C[C@]12CC[C@@H]3c4ccc(O)cc4CC[C@H]3[C@@H]1CCC2=O [Estrone],HSD17B13 Enzymatic Activity Percent Estradiol Control,"Steroid Library, 50 μM steroid",0.45%
CC(C)OC(=O)CCC/C=C\C[C@@H]1[C@@H](/C=C/[C@@H](O)COc2cccc(C(F)(F)F)c2)[C@H](O)C[C@@H]1O [Fluprostenol isopropyl ester],HSD17B13 Enzymatic Activity Relative Light Units,[1],467040 RLU
same,HSD17B13 Enzymatic Activity Percent Estradiol Control,[2],14.54%
C[C@]12CCC(=O)C(O)=C1CC[C@@H]1[C@@H]2CC[C@]2(C)C(=O)CC[C@@H]12 [Formestane],HSD17B13 Enzymatic Activity Percent Estradiol Control,"Steroid Library, 50 μM steroid",0.63%
C=CCc1ccc(O)c(-c2ccc(O)c(CC=C)c2)c1 [Honokiol],HSD17B13 Enzymatic Activity Relative Light Units,"Steroid Library, 50 μM steroid",52920 RLU
same,HSD17B13 Enzymatic Activity Percent Estradiol Control,"Steroid Library, 50 μM steroid",−1.88%
CC(C)=CCC[C@]1(C)[C@@H](CC=C(C)C)C[C@@]2(CC=C(C)C)C(=O)[C@]1(C(=O)C(C)C)C(=O)C(CC=C(C)C)=C2O [Hyperforin],HSD17B13 Enzymatic Activity Relative Light Units,[1],23920 RLU
same,HSD17B13 Enzymatic Activity Percent Estradiol Control,[2],−22.74%
O=C(O)CCC/C=C\C[C@@H]1[C@@H](/C=C/[C@@H](O)COc2ccc(I)cc2)[C@H]2CC[C@@H]1O2 [I-BOP],HSD17B13 Enzymatic Activity Relative Light Units,[1],358960 RLU
same,HSD17B13 Enzymatic Activity Percent Estradiol Control,[2],6.00%
CC1(C)[C@@H]2C[C@H](NS(=O)(=O)c3ccc(I)cc3)[C@@H](C/C=C\CCCC(=O)O)[C@H]1C2 [I-SAP],HSD17B13 Enzymatic Activity Relative Light Units,[1],245520 RLU
same,HSD17B13 Enzymatic Activity Percent Estradiol Control,[2],−2.97%
CC#CCC(C)[C@H](O)/C=C/[C@@H]1[C@H]2C/C(=C/CCCC(=O)O)C[C@H]2C[C@H]1O (some centres unmarked) [Iloprost],HSD17B13 Enzymatic Activity Relative Light Units,[1],358880 RLU
same,HSD17B13 Enzymatic Activity Percent Estradiol Control,[2],5.99%
CC(=O)N[C@@H](CSC(=O)[C@]1([C@@H](O)C(C)C)NC(=O)[C@H](C)[C@@H]1O)C(=O)O [Lactacystin],HSD17B13 Enzymatic Activity Relative Light Units,[1],328520 RLU
same,HSD17B13 Enzymatic Activity Percent Estradiol Control,[2],0.26%
CCCCCCCC\C=C/C=C/C=C/[C@@H]1O[C@H]1CCCC(=O)OC [Leukotriene A3 methyl ester],HSD17B13 Enzymatic Activity Relative Light Units,[1],990560 RLU
same,HSD17B13 Enzymatic Activity Percent Estradiol Control,[2],55.92%
CCCCC/C=C\C\C=C/C=C/C=C/[C@@H]1O[C@H]1CCCC(=O)OC [Leukotriene A4 methyl ester],HSD17B13 Enzymatic Activity Relative Light Units,[1],463120 RLU
same,HSD17B13 Enzymatic Activity Percent Estradiol Control,[2],14.23%
CCCCCCCC[C@H](O)/C=C/C=C\C=C\[C@H](O)CCCC(=O)O [Leukotriene B3],HSD17B13 Enzymatic Activity Relative Light Units,[1],2077280 RLU
same,HSD17B13 Enzymatic Activity Percent Estradiol Control,[2],141.82%
CCCCC/C=C\C[C@@H](O)/C=C/C=C/C=C\[C@@H](O)CCCC(=O)NCCO [Leukotriene B4 Ethanolamide],HSD17B13 Enzymatic Activity Relative Light Units,[1],1948920 RLU
same,HSD17B13 Enzymatic Activity Percent Estradiol Control,[2],131.68%
CCCCC/C=C\C[C@@H](O)/C=C/C=C/C=C\[C@@H](O)CCCC(=O)N(C)C [Leukotriene B4 dimethyl amide],HSD17B13 Enzymatic Activity Relative Light Units,[1],1910040 RLU
same,HSD17B13 Enzymatic Activity Percent Estradiol Control,[2],128.60%
CCCCC/C=C\C\C=C/C=C/C=C/[C@@H](SC[C@H](NC(=O)CC[C@@H](N)C(=O)O)C(=O)O)[C@@H](O)CCCC(=O)O [Leukotriene F4],HSD17B13 Enzymatic Activity Relative Light Units,[1],400400 RLU
same,HSD17B13 Enzymatic Activity Percent Estradiol Control,[2],9.27%
CCCCC[C@H](O)/C=C/C=C\C=C\C=C\[C@@H](O)[C@@H](O)CCCC(=O)O [Lipoxin A4],HSD17B13 Enzymatic Activity Relative Light Units,[1],352680 RLU
same,HSD17B13 Enzymatic Activity Percent Estradiol Control,[2],2.09%
CN(C)C(=O)CCSC(SCCC(=O)O)c1cccc(/C=C/c2ccc3ccc(Cl)cc3n2)c1 (centres unmarked) [MK-571],HSD17B13 Enzymatic Activity Relative Light Units,[1],281520 RLU
same,HSD17B13 Enzymatic Activity Percent Estradiol Control,[2],−0.12%
CCCCCCCC/C=C\CCCCCCCC(=O)O [Oleic Acid],HSD17B13 Enzymatic Activity Relative Light Units,"Steroid Library, 50 μM steroid",17520 RLU
same,HSD17B13 Enzymatic Activity Percent Estradiol Control,"Steroid Library, 50 μM steroid",−2.50%
C[C@]12C/C(=C/O)C(=O)C[C@@H]1CC[C@@H]1[C@@H]2CC[C@@]2(C)[C@H]1CC[C@]2(C)O [Oxymetholone],HSD17B13 Enzymatic Activity Relative Light Units,"Steroid Library, 50 μM steroid",92000 RLU
same,HSD17B13 Enzymatic Activity Percent Estradiol Control,"Steroid Library, 50 μM steroid",−1.20%
